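All cell lines were grown in 96-well plates and treated with compound for 48 hours. Abbreviation: GI50, concentration required for 50% inhibition of growth. TGI: concentration producing complete growth inhibition.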
What was measured:
Test in all cases: NCI tumour cell line growth inhibition, 48 h
786-0 renal = test system: 786-0 renal
A498 renal = test system: A498 renal
A549 NSCLC = test system: A549 NSCLC
ACHN renal = test system: ACHN renal
BT-549 breast = test system: BT-549 breast
CCRF-CEM leukemia = test system: CCRF-CEM leukemia
COLO 205 colon = test system: COLO 205 colon
EKVX NSCLC = test system: EKVX NSCLC
HCC-2998 colon = test system: HCC-2998 colon
HCT-116 colon = test system: HCT-116 colon
HCT-15 colon = test system: HCT-15 colon
HL-60(TB) leukemia = test system: HL-60(TB) leukemia
HOP-62 NSCLC = test system: HOP-62 NSCLC
HOP-92 NSCLC = test system: HOP-92 NSCLC
HT29 colon = test system: HT29 colon
IGROV1 ovarian = test system: IGROV1 ovarian
K-562 leukemia = test system: K-562 leukemia
KM12 colon = test system: KM12 colon
LOX IMVI melanoma = test system: LOX IMVI melanoma
M14 melanoma = test system: M14 melanoma
MALME-3M melanoma = test system: MALME-3M melanoma
MCF7 breast = test system: MCF7 breast
MDA-MB-231 breast = test system: MDA-MB-231 breast
MDA-MB-435 = test system: MDA-MB-435
MOLT-4 leukemia = test system: MOLT-4 leukemia
NCI-H226 lung = test system: NCI-H226 lung
NCI-H23 lung = test system: NCI-H23 lung
NCI-H460 lung = test system: NCI-H460 lung
NCI-H522 lung = test system: NCI-H522 lung
NCI/ADR-RES ovarian = test system: NCI/ADR-RES ovarian
OVCAR-3 ovarian = test system: OVCAR-3 ovarian
OVCAR-4 ovarian = test system: OVCAR-4 ovarian
OVCAR-5 ovarian = test system: OVCAR-5 ovarian
OVCAR-8 ovarian = test system: OVCAR-8 ovarian
PC-3 prostate = test system: PC-3 prostate
RPMI-8226 leukemia = test system: RPMI-8226 leukemia
RXF 393 renal = test system: RXF 393 renal
SF-268 CNS = test system: SF-268 CNS
SF-295 CNS = test system: SF-295 CNS
SF-539 CNS = test system: SF-539 CNS
SK-MEL-2 melanoma = test system: SK-MEL-2 melanoma
SK-MEL-28 melanoma = test system: SK-MEL-28 melanoma
SK-MEL-5 melanoma = test system: SK-MEL-5 melanoma
SK-OV-3 ovarian = test system: SK-OV-3 ovarian
SN12C renal = test system: SN12C renal
SNB-19 CNS = test system: SNB-19 CNS
SNB-75 CNS = test system: SNB-75 CNS
SR leukemia = test system: SR leukemia
SW-620 colon = test system: SW-620 colon
T-47D breast = test system: T-47D breast
TK-10 renal = test system: TK-10 renal
U251 CNS = test system: U251 CNS
UACC-257 melanoma = test system: UACC-257 melanoma
UACC-62 melanoma = test system: UACC-62 melanoma
UO-31 renal = test system: UO-31 renal

CCN1CCN(c2nc(C)cc(N(CCCNc3ccnc4cc(Cl)ccc34)Cc3ccc4c(c3)OCO4)n2)CC1
GI50 (786-0 renal): 1.46 µM
TGI (786-0 renal): 2.95 µM
GI50 (A498 renal): 1.38 µM
TGI (A498 renal): 4.23 µM
GI50 (A549 NSCLC): 1.97 µM
TGI (A549 NSCLC): 7.42 µM
GI50 (ACHN renal): 2.03 µM
TGI (ACHN renal): 4.15 µM
GI50 (BT-549 breast): 1.78 µM
TGI (BT-549 breast): 3.7 µM
GI50 (CCRF-CEM leukemia): 1.81 µM
TGI (CCRF-CEM leukemia): 7.14 µM
GI50 (COLO 205 colon): 1.7 µM
TGI (COLO 205 colon): 3.46 µM
GI50 (EKVX NSCLC): 2.6 µM
TGI (EKVX NSCLC): 10.9 µM
GI50 (HCC-2998 colon): 1.62 µM
TGI (HCC-2998 colon): 3.85 µM
GI50 (HCT-116 colon): 1.1 µM
TGI (HCT-116 colon): 3.02 µM
GI50 (HCT-15 colon): 1.07 µM
TGI (HCT-15 colon): 3.16 µM
GI50 (HL-60(TB) leukemia): 2.11 µM
TGI (HL-60(TB) leukemia): 3.96 µM
GI50 (HOP-62 NSCLC): 1.46 µM
TGI (HOP-62 NSCLC): 4.09 µM
GI50 (HOP-92 NSCLC): 1.15 µM
TGI (HOP-92 NSCLC): 3.1 µM
GI50 (HT29 colon): 1.07 µM
TGI (HT29 colon): 2.64 µM
GI50 (IGROV1 ovarian): 1.61 µM
TGI (IGROV1 ovarian): 5.06 µM
GI50 (K-562 leukemia): 0.361 µM
TGI (K-562 leukemia): 1.51 µM
GI50 (KM12 colon): 2.42 µM
TGI (KM12 colon): 10.8 µM
GI50 (LOX IMVI melanoma): 1.62 µM
TGI (LOX IMVI melanoma): 3.18 µM
GI50 (M14 melanoma): 1.8 µM
TGI (M14 melanoma): 3.38 µM
GI50 (MALME-3M melanoma): 1.77 µM
TGI (MALME-3M melanoma): 3.34 µM
GI50 (MCF7 breast): 1.58 µM
TGI (MCF7 breast): 10.2 µM
GI50 (MDA-MB-231 breast): 1.2 µM
TGI (MDA-MB-231 breast): 2.9 µM
GI50 (MDA-MB-435): 1.56 µM
TGI (MDA-MB-435): 3.06 µM
GI50 (MOLT-4 leukemia): 1.2 µM
TGI (MOLT-4 leukemia): 4.35 µM
GI50 (NCI-H226 lung): 5.36 µM
TGI (NCI-H226 lung): 24.4 µM
GI50 (NCI-H23 lung): 2.61 µM
TGI (NCI-H23 lung): 10.1 µM
GI50 (NCI-H460 lung): 1.53 µM
TGI (NCI-H460 lung): 3.54 µM
GI50 (NCI-H522 lung): 1.66 µM
TGI (NCI-H522 lung): 3.39 µM
GI50 (NCI/ADR-RES ovarian): 2.63 µM
TGI (NCI/ADR-RES ovarian): 10.1 µM
GI50 (OVCAR-3 ovarian): 1.61 µM
TGI (OVCAR-3 ovarian): 3.96 µM
GI50 (OVCAR-4 ovarian): 1.75 µM
TGI (OVCAR-4 ovarian): 7.12 µM
GI50 (OVCAR-5 ovarian): 2.57 µM
TGI (OVCAR-5 ovarian): 7.77 µM
GI50 (OVCAR-8 ovarian): 2.12 µM
TGI (OVCAR-8 ovarian): 6.06 µM
GI50 (PC-3 prostate): 2.43 µM
TGI (PC-3 prostate): 11 µM
GI50 (RPMI-8226 leukemia): 0.794 µM
TGI (RPMI-8226 leukemia): 3.02 µM
GI50 (RXF 393 renal): 1.54 µM
TGI (RXF 393 renal): 3.12 µM
GI50 (SF-268 CNS): 1.62 µM
TGI (SF-268 CNS): 4.06 µM
GI50 (SF-295 CNS): 1.81 µM
TGI (SF-295 CNS): 3.39 µM
GI50 (SF-539 CNS): 1.63 µM
TGI (SF-539 CNS): 3.07 µM
GI50 (SK-MEL-2 melanoma): 1.83 µM
TGI (SK-MEL-2 melanoma): 3.5 µM
GI50 (SK-MEL-28 melanoma): 1.61 µM
TGI (SK-MEL-28 melanoma): 3.11 µM
GI50 (SK-MEL-5 melanoma): 1.66 µM
TGI (SK-MEL-5 melanoma): 3.05 µM
GI50 (SK-OV-3 ovarian): 2.58 µM
TGI (SK-OV-3 ovarian): 6.7 µM
GI50 (SN12C renal): 2.03 µM
TGI (SN12C renal): 5.55 µM
GI50 (SNB-19 CNS): 2.98 µM
TGI (SNB-19 CNS): 11.3 µM
GI50 (SNB-75 CNS): 1.48 µM
TGI (SNB-75 CNS): 3.1 µM
GI50 (SR leukemia): 0.339 µM
TGI (SR leukemia): 1.58 µM
GI50 (SW-620 colon): 1.4 µM
TGI (SW-620 colon): 3.12 µM
GI50 (T-47D breast): 2.04 µM
TGI (T-47D breast): 4.53 µM
GI50 (TK-10 renal): 1.74 µM
TGI (TK-10 renal): 3.21 µM
GI50 (U251 CNS): 1.56 µM
TGI (U251 CNS): 3.17 µM
GI50 (UACC-257 melanoma): 1.8 µM
TGI (UACC-257 melanoma): 3.49 µM
GI50 (UACC-62 melanoma): 1.81 µM
TGI (UACC-62 melanoma): 3.32 µM
GI50 (UO-31 renal): 1.31 µM
TGI (UO-31 renal): 2.64 µM
